# Test results reported in patent US12558428B2, “Heterobifunctional compounds and their use in treating disease” (Halda Therapeutics OpCo, Inc., priority 2024, dated 2026).
# Test system: T-Rex 293 cells having increased expression of estrogen receptor alpha protein
# Test: Cellular growth inhibition assay, T-Rex 293 cells, (+) doxycycline
# Format: cell-based
# Conditions: T-REx-293, 72 h, Table 7-B; T-Rex 293 cells with doxycycline (increased ERα expression); 72 hours; CellTiter-Glo; read-out: (+) Dox GI50
# Summary of the method: (§1)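 Viability read-out was CellTiter-Glo 2.0 luminescence after 72 h compound exposure, normalized to zero luminescence and fitted by four-parameter regression to give GI50. Cells were an ERα-inducible T-Rex 293 clone cultured with or without 3 ng/mL doxycycline in charcoal-stripped, phenol red-free medium.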
row,Compound,GI50 [nM]
1,COc1cc(N2CCN(CC3(O)CCN(c4ccc(C5=N[C@@H](C)c6nnc(C)n6-c6sc(C)c(C)c65)cc4)CC3)CC2)ccc1[C@H]1c2ccc(O)cc2CC[C@H]1c1ccc(C(F)(F)F)cc1 [III-348],500 to 2500
2,COc1cc(N2CCN(CC3(O)CCN(c4ccc(C5=N[C@@H](C)c6nnc(C)n6-c6sc(C)c(C)c65)cc4)CC3)CC2)ccc1[C@@H]1c2ccc(O)cc2CC[C@@H]1c1ccc(C(F)(F)F)cc1 [III-349],< 50
3,COc1cc(N2CCN(CC3CCN(c4ccc(C5=N[C@@H](C)c6nnc(C)n6-c6sc(C)c(C)c65)c(F)c4)CC3)CC2)ccc1[C@H]1c2ccc(O)cc2CC[C@H]1c1ccc(C(F)(F)F)cc1 [III-350],> 2500
4,COc1cc(N2CCN(CC3CCN(c4ccc(C5=N[C@@H](C)c6nnc(C)n6-c6sc(C)c(C)c65)c(F)c4)CC3)CC2)ccc1[C@@H]1c2ccc(O)cc2CC[C@@H]1c1ccc(C(F)(F)F)cc1 [III-351],< 50
5,COc1cc(N2CCC(O)(CN3CCN(c4ccc([C@H]5c6ccc(O)cc6CC[C@@H]5c5ccc(F)cc5)cc4F)CC3)CC2)ccc1C1=N[C@@H](C)c2nnc(C)n2-c2sc(C)c(C)c21 [III-352],< 50
6,COc1cc(N2CCC(O)(CN3CCN(c4ccc([C@H]5c6ccc(O)cc6CC[C@H]5c5ccc(F)cc5)cc4F)CC3)CC2)ccc1C1=N[C@@H](C)c2nnc(C)n2-c2sc(C)c(C)c21 [III-353],50 to 500
7,COc1cc(N2CCN(CC3(O)CCN(c4ccc(C5=N[C@@H](C)c6nnc(C)n6-c6sc(C)c(C)c65)c(F)c4)CC3)CC2)ccc1[C@H]1c2ccc(O)cc2CC[C@H]1c1ccc(C(F)(F)F)cc1 [III-354],50 to 500
8,COc1cc(N2CCN(CC3(O)CCN(c4ccc(C5=N[C@@H](C)c6nnc(C)n6-c6sc(C)c(C)c65)c(F)c4)CC3)CC2)ccc1[C@@H]1c2ccc(O)cc2CC[C@@H]1c1ccc(C(F)(F)F)cc1 [III-355],< 50
9,COc1cc(N2CCC(O)(CN3CCN(c4cc(F)c([C@@H]5c6ccc(O)cc6CC[C@@H]5c5ccccc5)cc4F)CC3)CC2)ccc1C1=N[C@@H](C)c2nnc(C)n2-c2sc(C)c(C)c21 [III-356],< 50
10,COc1cc(N2CCC(O)(CN3CCN(c4cc(F)c([C@H]5c6ccc(O)cc6CC[C@H]5c5ccccc5)cc4F)CC3)CC2)ccc1C1=N[C@@H](C)c2nnc(C)n2-c2sc(C)c(C)c21 [III-357],50 to 500

# Test system: MCF7 cells (ECACC #86012803)
# Test: Cellular growth inhibition assay, MCF7 cells purchased from ECACC
# Format: cell-based
# Conditions: Homo sapiens, 144 h; MCF7 cells purchased from ECACC (#86012803); six days treatment; CellTiter-Glo 2.0 viability
# Protocol: Exemplary compounds were tested for the ability to inhibit the proliferation of MCF7 cells.
# MCF7 cells (ATCC #HTB-22 or ECACC #86012803) were cultured in RPMI 1640 medium supplemented with 10% heat-inactivated fetal bovine serum, 1% pen-strep, and 0.2 U/ml insulin. Cells were seeded in 25 μL of RPMI 1640 medium supplemented with 10% heat-inactivated fetal bovine serum, 1% pen-strep, 0.2 U/ml insulin in poly-D-lysine treated, black clear-bottom 384-well plates at 225 cells/well for MCF7 cells purchased from ECACC or 1,500 cells/well for MCF7 cells purchased from ATCC. Following seeding, plates were spun at 300×g for 30 seconds and cultured at 37° C. with 5% CO2 in a humidified tissue culture incubator.
# At 24 hours after seeding, compounds were titrated in 100% DMSO and diluted in RPMI 1640 medium supplemented with 10% heat-inactivate fetal bovine serum, 1% pen-strep, and 0.2 U/ml insulin. A 25 μL aliquot of the compound/media mixture was added to cells, bringing the total volume in each well to 50 μL. An equal volume of DMSO without compound was used as a negative control. After treatment, plates were spun at 300×g for 30 seconds, then cultured at 37° C. with 5% CO2 for six days in a humidified tissue culture incubator.
# On Day 6 of treatment, cell viability was quantified with CellTiter-Glo 2.0 reagent (Promega). Plates were equilibrated to room temperature for 30 minutes, then 25 μL of CellTiter-Glo 2.0 reagent was added to cells, bringing the total volume in each well to 75 μL. After reagent was added, plates were mixed on a shaker for two minutes at 500 rpm and then incubated at room temperature for 10 minutes. Following incubation, plates were spun at 3,000×g for 30 seconds, sealed with an optical adhesive cover, and luminescence readings were measured with an EnVision Plate Reader.
# Data was normalized to 0 luminescence for baseline. A four-parameter, non-linear regression curve fit was applied to dose-response data in GraphPad Prism data analysis software to determine the half maximal growth inhibitory concentration (GI50) for each compound.
row,Compound,GI50 [nM]
1,COc1cc(N2CCN(CC3(O)CCN(c4ccc(C5=N[C@@H](C)c6nnc(C)n6-c6sc(C)c(C)c65)cc4)CC3)CC2)ccc1[C@H]1c2ccc(O)cc2CC[C@H]1c1ccc(C(F)(F)F)cc1 [III-348],500 to 2500
2,COc1cc(N2CCN(CC3(O)CCN(c4ccc(C5=N[C@@H](C)c6nnc(C)n6-c6sc(C)c(C)c65)cc4)CC3)CC2)ccc1[C@@H]1c2ccc(O)cc2CC[C@@H]1c1ccc(C(F)(F)F)cc1 [III-349],< 50
3,COc1cc(N2CCN(CC3CCN(c4ccc(C5=N[C@@H](C)c6nnc(C)n6-c6sc(C)c(C)c65)c(F)c4)CC3)CC2)ccc1[C@H]1c2ccc(O)cc2CC[C@H]1c1ccc(C(F)(F)F)cc1 [III-350],50 to 500
4,COc1cc(N2CCN(CC3CCN(c4ccc(C5=N[C@@H](C)c6nnc(C)n6-c6sc(C)c(C)c65)c(F)c4)CC3)CC2)ccc1[C@@H]1c2ccc(O)cc2CC[C@@H]1c1ccc(C(F)(F)F)cc1 [III-351],< 50
5,COc1cc(N2CCC(O)(CN3CCN(c4ccc([C@H]5c6ccc(O)cc6CC[C@@H]5c5ccc(F)cc5)cc4F)CC3)CC2)ccc1C1=N[C@@H](C)c2nnc(C)n2-c2sc(C)c(C)c21 [III-352],< 50
6,COc1cc(N2CCC(O)(CN3CCN(c4ccc([C@H]5c6ccc(O)cc6CC[C@H]5c5ccc(F)cc5)cc4F)CC3)CC2)ccc1C1=N[C@@H](C)c2nnc(C)n2-c2sc(C)c(C)c21 [III-353],50 to 500
7,COc1cc(N2CCN(CC3(O)CCN(c4ccc(C5=N[C@@H](C)c6nnc(C)n6-c6sc(C)c(C)c65)c(F)c4)CC3)CC2)ccc1[C@H]1c2ccc(O)cc2CC[C@H]1c1ccc(C(F)(F)F)cc1 [III-354],50 to 500
8,COc1cc(N2CCN(CC3(O)CCN(c4ccc(C5=N[C@@H](C)c6nnc(C)n6-c6sc(C)c(C)c65)c(F)c4)CC3)CC2)ccc1[C@@H]1c2ccc(O)cc2CC[C@@H]1c1ccc(C(F)(F)F)cc1 [III-355],< 50
9,COc1cc(N2CCC(O)(CN3CCN(c4cc(F)c([C@@H]5c6ccc(O)cc6CC[C@@H]5c5ccccc5)cc4F)CC3)CC2)ccc1C1=N[C@@H](C)c2nnc(C)n2-c2sc(C)c(C)c21 [III-356],50 to 500
10,COc1cc(N2CCC(O)(CN3CCN(c4cc(F)c([C@H]5c6ccc(O)cc6CC[C@H]5c5ccccc5)cc4F)CC3)CC2)ccc1C1=N[C@@H](C)c2nnc(C)n2-c2sc(C)c(C)c21 [III-357],50 to 500

# Test system: T-Rex 293 cells lacking increased expression of estrogen receptor alpha protein
# Test: Cellular growth inhibition assay, T-Rex 293 cells, (−) doxycycline
# Format: cell-based
# Conditions: T-REx-293, 72 h, Table 7-B; T-Rex 293 cells without doxycycline (lacking increased ERα expression); 72 hours; CellTiter-Glo; read-out: (−) Dox GI50
# Summary of the method: as §1
row,Compound,GI50 [nM]
1,COc1cc(N2CCN(CC3(O)CCN(c4ccc(C5=N[C@@H](C)c6nnc(C)n6-c6sc(C)c(C)c65)cc4)CC3)CC2)ccc1[C@H]1c2ccc(O)cc2CC[C@H]1c1ccc(C(F)(F)F)cc1 [III-348],500 to 2500
2,COc1cc(N2CCN(CC3(O)CCN(c4ccc(C5=N[C@@H](C)c6nnc(C)n6-c6sc(C)c(C)c65)cc4)CC3)CC2)ccc1[C@@H]1c2ccc(O)cc2CC[C@@H]1c1ccc(C(F)(F)F)cc1 [III-349],500 to 2500
3,COc1cc(N2CCN(CC3CCN(c4ccc(C5=N[C@@H](C)c6nnc(C)n6-c6sc(C)c(C)c65)c(F)c4)CC3)CC2)ccc1[C@H]1c2ccc(O)cc2CC[C@H]1c1ccc(C(F)(F)F)cc1 [III-350],> 2500
4,COc1cc(N2CCN(CC3CCN(c4ccc(C5=N[C@@H](C)c6nnc(C)n6-c6sc(C)c(C)c65)c(F)c4)CC3)CC2)ccc1[C@@H]1c2ccc(O)cc2CC[C@@H]1c1ccc(C(F)(F)F)cc1 [III-351],> 2500
5,COc1cc(N2CCC(O)(CN3CCN(c4ccc([C@H]5c6ccc(O)cc6CC[C@@H]5c5ccc(F)cc5)cc4F)CC3)CC2)ccc1C1=N[C@@H](C)c2nnc(C)n2-c2sc(C)c(C)c21 [III-352],500 to 2500
6,COc1cc(N2CCC(O)(CN3CCN(c4ccc([C@H]5c6ccc(O)cc6CC[C@H]5c5ccc(F)cc5)cc4F)CC3)CC2)ccc1C1=N[C@@H](C)c2nnc(C)n2-c2sc(C)c(C)c21 [III-353],500 to 2500
7,COc1cc(N2CCN(CC3(O)CCN(c4ccc(C5=N[C@@H](C)c6nnc(C)n6-c6sc(C)c(C)c65)c(F)c4)CC3)CC2)ccc1[C@H]1c2ccc(O)cc2CC[C@H]1c1ccc(C(F)(F)F)cc1 [III-354],500 to 2500
8,COc1cc(N2CCN(CC3(O)CCN(c4ccc(C5=N[C@@H](C)c6nnc(C)n6-c6sc(C)c(C)c65)c(F)c4)CC3)CC2)ccc1[C@@H]1c2ccc(O)cc2CC[C@@H]1c1ccc(C(F)(F)F)cc1 [III-355],500 to 2500
9,COc1cc(N2CCC(O)(CN3CCN(c4cc(F)c([C@@H]5c6ccc(O)cc6CC[C@@H]5c5ccccc5)cc4F)CC3)CC2)ccc1C1=N[C@@H](C)c2nnc(C)n2-c2sc(C)c(C)c21 [III-356],500 to 2500
10,COc1cc(N2CCC(O)(CN3CCN(c4cc(F)c([C@H]5c6ccc(O)cc6CC[C@H]5c5ccccc5)cc4F)CC3)CC2)ccc1C1=N[C@@H](C)c2nnc(C)n2-c2sc(C)c(C)c21 [III-357],500 to 2500
